In patent US5202315A, “Cephalosporin compounds” (Lucky, Ltd., priority 1989, dated 1993):
Values after ≈ are worked out from the molar mass of the structure shown. Where two headings read alike, the source gives them in different places.

What was measured:
[1] = tested on: Acinetobacter calcoaceticus ATCC 15473; assay: Antibacterial activity, MIC; type: cell-based; settings: ATCC15473, ATCC 15473, agar two-fold dilution, 37° C., 20 hours, read-out: MIC
Experimental: (§1) Also, the in vitro antibacterial activity was determined by the by a two-fold dilution method as described below:
(§2) That is, the two-fold serial dilutions of the compound were made dispersed in Muller-Hinton agar medium. 2 μl of standard test strain which had the 10^7 CFU per ml was inoculated on the medium, and was incubated at 37° C. for 20 hours.

[2] = tested on: Bacillus cereus ATCC 11778; assay: Antibacterial activity, MIC; type: cell-based; settings: ATCC11778, ATCC 11778, agar two-fold dilution, 37° C., 20 hours, read-out: MIC
Experimental: as §1, §2

[3] = tested on: Citrobacter freundii ATCC 8090; assay: Antibacterial activity, MIC; type: cell-based; settings: ATCC8090, ATCC 8090, agar two-fold dilution, 37° C., 20 hours, read-out: MIC
Experimental: as §1, §2

[4] = tested on: Enterobacter aerogenes ATCC 29751; assay: Antibacterial activity, MIC; type: cell-based; settings: Klebsiella aerogenes, ATCC29751; ATCC 29751; agar two-fold dilution, 37° C., 20 hours; read-out: MIC
Experimental: as §1, §2

[5] = tested on: Enterobacter cloacae ATCC 27508; assay: Antibacterial activity, MIC; type: cell-based; settings: ATCC27508, ATCC 27508, agar two-fold dilution, 37° C., 20 hours, read-out: MIC
Experimental: as §1, §2

[6] = tested on: Escherichia coli ATCC 10536; assay: Antibacterial activity, MIC; type: cell-based; settings: ATCC10536, agar two-fold dilution, 37° C., 20 hours
Experimental: as §1, §2

[7] = tested on: Escherichia coli ATCC 25922; assay: Antibacterial activity, MIC; type: cell-based; settings: ATCC25922, agar two-fold dilution, 37° C., 20 hours
Experimental: as §1, §2

[8] = tested on: Klebsiella pneumoniae ATCC 10031; assay: Antibacterial activity, MIC; type: cell-based; settings: ATCC10031, ATCC 10031, agar two-fold dilution, 37° C., 20 hours, read-out: MIC
Experimental: as §1, §2

[9] = tested on: Micrococcus luteus ATCC 9341; assay: Antibacterial activity, MIC; type: cell-based; settings: ATCC9341, ATCC 9341, agar two-fold dilution, 37° C., 20 hours, read-out: MIC
Experimental: as §1, §2

[10] = tested on: Morganella morganii ATCC 8076h; assay: Antibacterial activity, MIC; type: cell-based; settings: ATCC8076H, agar two-fold dilution, 37° C., 20 hours
Experimental: as §1, §2

[11] = tested on: Proteus mirabilis ATCC 25933; assay: Antibacterial activity, MIC; type: cell-based; settings: ATCC25933, ATCC 25933, agar two-fold dilution, 37° C., 20 hours, read-out: MIC
Experimental: as §1, §2

[12] = tested on: Proteus vulgaris ATCC 6059; assay: Antibacterial activity, MIC; type: cell-based; settings: ATCC6059, ATCC 6059, agar two-fold dilution, 37° C., 20 hours, read-out: MIC
Experimental: as §1, §2

[13] = tested on: Providencia rettgeri ATCC 9250; assay: Antibacterial activity, MIC; type: cell-based; settings: ATCC9250, agar two-fold dilution, 37° C., 20 hours
Experimental: as §1, §2

[14] = tested on: Pseudomonas aeruginosa ATCC 10145; assay: Antibacterial activity, MIC; type: cell-based; settings: ATCC10145, ATCC 10145, agar two-fold dilution, 37° C., 20 hours, read-out: MIC
Experimental: as §1, §2

[15] = tested on: Pseudomonas aeruginosa ATCC 25619; assay: Antibacterial activity, MIC; type: cell-based; settings: ATCC25619, ATCC 25619, agar two-fold dilution, 37° C., 20 hours, read-out: MIC
Experimental: as §1, §2

[16] = tested on: Pseudomonas aeruginosa ATCC 27853; assay: Antibacterial activity, MIC; type: cell-based; settings: ATCC27853, ATCC 27853, agar two-fold dilution, 37° C., 20 hours, read-out: MIC
Experimental: as §1, §2

[17] = tested on: Salmonella typhimurium ATCC 14028; assay: Antibacterial activity, MIC; type: cell-based; settings: Salmonella enterica; ATCC 14028; agar two-fold dilution, 37° C., 20 hours; read-out: MIC
Experimental: as §1, §2

[18] = tested on: Serratia marcescens ATCC 27117; assay: Antibacterial activity, MIC; type: cell-based; settings: ATCC27117, ATCC 27117, agar two-fold dilution, 37° C., 20 hours, read-out: MIC
Experimental: as §1, §2

[19] = tested on: Shigella flexneri ATCC 11836; assay: Antibacterial activity, MIC; type: cell-based; settings: ATCC11836, agar two-fold dilution, 37° C., 20 hours
Experimental: as §1, §2

[20] = tested on: Shigella sonnei ATCC 11060; assay: Antibacterial activity, MIC; type: cell-based; settings: ATCC11060, ATCC 11060, agar two-fold dilution, 37° C., 20 hours, read-out: MIC
Experimental: as §1, §2

[21] = tested on: Staphylococcus aureus ATCC 10537; assay: Antibacterial activity, MIC; type: cell-based; settings: ATCC10537, ATCC 10537, agar two-fold dilution, 37° C., 20 hours, read-out: MIC
Experimental: as §1, §2

[22] = tested on: Staphylococcus aureus ATCC 6538p; assay: Antibacterial activity, MIC; type: cell-based; settings: ATCC6538P, ATCC 6538p, agar two-fold dilution, 37° C., 20 hours, read-out: MIC
Experimental: as §1, §2

[23] = tested on: Staphylococcus epidermidis ATCC 12228; assay: Antibacterial activity, MIC; type: cell-based; settings: ATCC12228, ATCC 12228, agar two-fold dilution, 37° C., 20 hours, read-out: MIC
Experimental: as §1, §2

[24] = tested on: Streptococcus faecalis ATCC 29212; assay: Antibacterial activity, MIC; type: cell-based; settings: Enterococcus faecalis, ATCC29212; ATCC 29212; agar two-fold dilution, 37° C., 20 hours; read-out: MIC
Experimental: as §1, §2

[25] = In-vivo absorbency (plasma concentrations & pharmacokinetic parameters); design: species or system SD rat (male); settings: plasma, SD male rat, iv 20 mg/kg; for concentration at 1 h: 60 min; for concentration at 1 h / concentration at 2 h: read-out: Plasma Conc.; for concentration at 2 h: 120 min; for AUC / half-life: two compartment model; for half-life: rat, iv, 20 mg/kg
Excerpt: The blood samples from the femoral vein of the rats were taken every hour after administration, and analyzed by bio-assay(agar well method).
Tested animal: SD male Rat (220~340 g)

[26] = as above; design: species or system SD rat (male); settings: plasma, SD male rat, iv 20 mg/kg, read-out: Plasma Conc.

| Compound | MIC [1] | MIC [2] | MIC [3] | MIC [4] | MIC [5] | MIC [6] | MIC [7] | MIC [8] | MIC [9] | MIC [10] | MIC [11] | MIC [12] | MIC [13] | MIC [14] | MIC [15] | MIC [16] | MIC [17] | MIC [18] | MIC [19] | MIC [20] | also measured |
| --- | --- | --- | --- | --- | --- | --- | --- | --- | --- | --- | --- | --- | --- | --- | --- | --- | --- | --- | --- | --- | --- |
| CCc1c(N)nc(SCC2=C(C(=O)[O-])N3C(=O)C(NC(=O)/C(=N\OC(C)(C)C(=O)O)c4csc(N)n4)C3SC2)[n+](C)c1N (stereo not drawn) [Compound I-31] | 8 µg/mL (≈ 12.3 µM) | 128 µg/mL (≈ 196 µM) | 0.13 µg/mL (≈ 0.199 µM) | 2 µg/mL (≈ 3.07 µM) | 0.016 µg/mL (≈ 0.0245 µM) | 0.063 µg/mL (≈ 0.0967 µM) | 0.13 µg/mL (≈ 0.199 µM) | 0.063 µg/mL (≈ 0.0967 µM) | 0.5 µg/mL (≈ 0.767 µM) | ≤ 0.008 µg/mL | 0.031 µg/mL (≈ 0.0476 µM) | 0.063 µg/mL (≈ 0.0967 µM) | ≤ 0.008 µg/mL | 4 µg/mL (≈ 6.14 µM) | 1 µg/mL (≈ 1.53 µM) | 2 µg/mL (≈ 3.07 µM) | 0.25 µg/mL (≈ 0.384 µM) | 0.25 µg/mL (≈ 0.384 µM) | 0.063 µg/mL (≈ 0.0967 µM) | 0.063 µg/mL (≈ 0.0967 µM) | MIC [21]: 4 µg/mL (≈ 6.14 µM); MIC [22]: 4 µg/mL (≈ 6.14 µM); MIC [23]: 2 µg/mL (≈ 3.07 µM); MIC [24]: > 128 µg/mL; concentration at 1 h [25]: 7700 ng/mL; concentration at 2 h [25]: 1600 ng/mL; AUC [25]: 30500 ng·h/mL; half-life ([25]; read-out: T1/2 (α)): 6 min; half-life ([25]; read-out: T1/2 (β)): 27 min; concentration at 0.5 min [26]: 208000 ng/mL; concentration at 2.5 min [26]: 85000 ng/mL; concentration at 5 min [26]: 62000 ng/mL; concentration at 10 min [26]: 45000 ng/mL; concentration at 20 min [26]: 30000 ng/mL; concentration at 40 min [26]: 14000 ng/mL |
| Cc1c(N)nc(SCC2=C(C(=O)[O-])N3C(=O)C(NC(=O)/C(=N\OC(C)(C)C(=O)O)c4csc(N)n4)C3SC2)[n+](N)c1N (stereo not drawn) [Compound I-34] | 4 µg/mL (≈ 6.26 µM) | 128 µg/mL (≈ 200 µM) | 0.063 µg/mL (≈ 0.0986 µM) | 1 µg/mL (≈ 1.57 µM) | 0.016 µg/mL (≈ 0.0251 µM) | 0.063 µg/mL (≈ 0.0986 µM) | 0.13 µg/mL (≈ 0.204 µM) | 0.063 µg/mL (≈ 0.0986 µM) | 0.5 µg/mL (≈ 0.783 µM) | ≤ 0.008 µg/mL | 0.031 µg/mL (≈ 0.0485 µM) | 0.063 µg/mL (≈ 0.0986 µM) | ≤ 0.008 µg/mL | 2 µg/mL (≈ 3.13 µM) | 2 µg/mL (≈ 3.13 µM) | 2 µg/mL (≈ 3.13 µM) | 0.13 µg/mL (≈ 0.204 µM) | 0.13 µg/mL (≈ 0.204 µM) | 0.031 µg/mL (≈ 0.0485 µM) | 0.063 µg/mL (≈ 0.0986 µM) | MIC [21]: 2 µg/mL (≈ 3.13 µM); MIC [22]: 4 µg/mL (≈ 6.26 µM); MIC [23]: 2 µg/mL (≈ 3.13 µM); MIC [24]: > 128 µg/mL; concentration at 1 h [25]: 7800 ng/mL; concentration at 2 h [25]: 1200 ng/mL; AUC [25]: 37200 ng·h/mL; half-life ([25]; read-out: T1/2 (α)): 1 min; half-life ([25]; read-out: T1/2 (β)): 21 min; concentration at 0.5 min [26]: 181000 ng/mL; concentration at 2.5 min [26]: 89000 ng/mL; concentration at 5 min [26]: 68000 ng/mL; concentration at 10 min [26]: 47000 ng/mL; concentration at 20 min [26]: 31000 ng/mL; concentration at 40 min [26]: 15000 ng/mL |
| CCc1c(N)nc(SCC2=C(C(=O)[O-])N3C(=O)C(NC(=O)/C(=N\OC(C)(C)C(=O)O)c4csc(N)n4)C3SC2)[n+](CC)c1N (stereo not drawn) [Compound I-33] | 16 µg/mL (≈ 24 µM) | 128 µg/mL (≈ 192 µM) | 0.13 µg/mL (≈ 0.195 µM) | 4 µg/mL (≈ 6.01 µM) | 0.031 µg/mL (≈ 0.0466 µM) | 0.13 µg/mL (≈ 0.195 µM) | 0.13 µg/mL (≈ 0.195 µM) | 0.13 µg/mL (≈ 0.195 µM) | 0.5 µg/mL (≈ 0.751 µM) | ≤ 0.008 µg/mL | 0.063 µg/mL (≈ 0.0946 µM) | 0.13 µg/mL (≈ 0.195 µM) | ≤ 0.008 µg/mL | 4 µg/mL (≈ 6.01 µM) | 2 µg/mL (≈ 3 µM) | 2 µg/mL (≈ 3 µM) | 0.5 µg/mL (≈ 0.751 µM) | 0.5 µg/mL (≈ 0.751 µM) | 0.063 µg/mL (≈ 0.0946 µM) | 0.25 µg/mL (≈ 0.375 µM) | MIC [21]: 4 µg/mL (≈ 6.01 µM); MIC [22]: 4 µg/mL (≈ 6.01 µM); MIC [23]: 2 µg/mL (≈ 3 µM); MIC [24]: > 128 µg/mL; concentration at 1 h [25]: 7000 ng/mL; concentration at 2 h [25]: 1200 ng/mL; AUC [25]: 30500 ng·h/mL; half-life ([25]; read-out: T1/2 (α)): 2 min; half-life ([25]; read-out: T1/2 (β)): 24 min; concentration at 0.5 min [26]: 194000 ng/mL; concentration at 2.5 min [26]: 79000 ng/mL; concentration at 5 min [26]: 55000 ng/mL; concentration at 10 min [26]: 36000 ng/mL; concentration at 20 min [26]: 21000 ng/mL; concentration at 40 min [26]: 13000 ng/mL |
